The source of these data is patent publication US7994140B2, “Classes of compounds that interact with GPCRs” (Alchemia Limited, priority 2002, dated 2011).

This assay addresses T1, MC4 (Homo sapiens, UniProt P32245).
T1 construct: purchased Perkin Elmer BioSignal; host or cells: HEK 293
Briefly: GPCR radioligand binding (RLB) assay, melanocortin MC4, [125I]NDP-αMSH. Particulars: for MC4 Inhibition at 4.0 Micromolar: 4.0 micromolar compound. How it is done: Recombinant human receptors expressed in HEK 293 cells were used for all experiments. Receptor membrane preparations were purchased from Perkin Elmer BioSignal. The labelled ligand used in somatostatin GPCR RLB assays was [^125I]SST-14 and in melanocortin assays was [^125I]NDP-αMSH. All assays were done in a 96-well plate format using either glass fiber filter mats or filter plates. All reagents purchased were of the highest quality.
Specific assay buffer, incubation and washing conditions were optimized for each receptor however they all followed the same general format. The procedures for both filter mat and filter plate formats are based on the receptor manufacturers recommendations or those described extensively in the literature. The procedures are briefly outlined below.
In assays where filter mats are used we incubate receptor membranes, assay buffer and [^125I] labelled ligand in 96 well microplates. Add compounds to incubation mixture and continue incubation for optimized period. Presoak Filter mat GF/B in 0.5% PEI for ˜2 hr at 4° C. On completion of assay mixture incubation add additional 100 μL/well of assay buffer immediately prior to filtration. Filter the assay mixture onto the GF/B filter mat using a cell harvester. Dry the filter mats prior to sealing them into a scintillation counting bag with scintillant. Radioactivity in each well is detected by liquid scintillation counting.
In assays where filter plates are used Multiscreen glass fiber filter plates (Millipore, Cat No MAFCNOB10) are precoated with 0.5% PEI for ˜2 hr at 4° C. All wells are then washed with 200 µl/well assay buffer and filtered using the Multiscreen Separation System. Subsequently receptor membranes, assay buffer and labelled ligands are added to the wells and equilibrated. Compounds for testing are then added to the mixture and incubation is continued for an optimized time. Plates are then put into the Multiscreen Separation System and the assay mixture is filtered through the plate under vacuum. Each well is then washed several times with assay buffer. Plates are then dried prior to putting sealing tape onto the bottom of the plate. Scintillant is added to each well and radioactivity measured by liquid scintillation counting.
Raw data was analysed according to standard methods using either GraphPad Prism software or IDDBS ActivityBase software.

The mark [1] stands for this setting: 10 micromolar compound, recombinant human receptor membranes (HEK 293).

T1 sequence (P32245 whole entry): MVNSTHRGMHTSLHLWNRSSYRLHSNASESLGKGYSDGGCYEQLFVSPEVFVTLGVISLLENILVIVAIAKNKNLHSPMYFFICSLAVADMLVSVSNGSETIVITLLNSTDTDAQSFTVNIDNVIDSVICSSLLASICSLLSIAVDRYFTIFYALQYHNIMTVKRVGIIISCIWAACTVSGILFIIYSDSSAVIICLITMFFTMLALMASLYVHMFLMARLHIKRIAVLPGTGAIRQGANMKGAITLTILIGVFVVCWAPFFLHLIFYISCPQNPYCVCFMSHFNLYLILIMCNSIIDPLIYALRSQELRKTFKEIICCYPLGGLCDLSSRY

On to `COC1C(O)C(COCc2ccc(Cl)cc2)OC(OCc2ccccc2)C1NC(=O)CCCN` (stereo not shown) [Compound 81], for which, under setting [1], the “MC4 inhibition at 10 micromolar” value was “+ (Indicates inhibition greater than . . . 50%)”.
Consider `COC1C(O)C(COCc2ccc(Cl)cc2)OC(OCc2ccccc2)C1NC(=O)CCCNC(=N)N` (stereo not shown) [Compound 82], for which the “MC4 inhibition at 10 micromolar” value under setting [1] was “+ (Indicates inhibition greater than . . . 50%)”.
For the molecule `COC1C(O)C(COCc2ccc(-c3ccccc3)cc2)OC(OCc2ccc(Cl)cc2)C1NC(=O)CNC(=N)N` (stereo not shown) [Compound 83], under setting [1], the “MC4 inhibition at 10 micromolar” value was “+ (Indicates inhibition greater than . . . 50%)”.
Consider `COC1C(O)C(COCc2ccc(-c3ccccc3)cc2)OC(OCc2ccc(Cl)cc2)C1NC(=O)CCCN` (stereo not shown) [Compound 85], for which, under setting [1], the “MC4 inhibition at 10 micromolar” value is recorded as “+ (Indicates inhibition greater than . . . 50%)”.
Consider `CO[C@H]1[C@H](O)[C@@H](COCc2ccc(Cl)cc2)OC(OCc2ccc(Cl)cc2)[C@@H]1NC(=O)CNC(=N)N` (stereo partly shown) [Compound 92], for which, under setting [1], the “MC4 inhibition at 10 micromolar” value is given as “+ (Indicates inhibition greater than . . . 50%)”.
Regarding `CO[C@H]1[C@H](O)[C@@H](COCc2ccc(Cl)cc2)OC(OCc2ccc(Cl)cc2)[C@@H]1NC(=O)CCNC(=N)N` (stereo partly shown) [Compound 93], the “MC4 inhibition at 10 micromolar” value under setting [1] is given as “+ (Indicates inhibition greater than . . . 50%)”.
In the case of `CO[C@H]1[C@H](O)[C@@H](COCc2ccc(Cl)cc2)OC(OCc2ccc(Cl)cc2)[C@@H]1NC(=O)CCCNC(=N)N` (stereo partly shown) [Compound 95], the “MC4 inhibition at 10 micromolar” value under setting [1] is “+ (Indicates inhibition greater than . . . 50%)”.
Turning to `CO[C@H]1[C@H](O)[C@@H](COCc2ccc(-c3ccccc3)cc2)OC(OCCc2ccccc2)[C@@H]1NC(=O)CNC(=N)N` (stereo partly shown) [Compound 96], the “MC4 inhibition at 10 micromolar” value under setting [1] is listed as “+ (Indicates inhibition greater than . . . 50%)”.
Still for that read-out and setting: under `CO[C@H]1[C@H](O)[C@@H](COCc2ccc(-c3ccccc3)cc2)OC(OCCc2ccccc2)[C@@H]1NC(=O)CCNC(=N)N` (stereo partly shown) [Compound 97] stands “+ (Indicates inhibition greater than . . . 50%)”.
In the case of `CO[C@H]1[C@H](O)[C@@H](COCc2ccc(-c3ccccc3)cc2)OC(OCCc2ccccc2)[C@@H]1NC(=O)CCCNC(=N)N` (stereo partly shown) [Compound 99], the “MC4 inhibition at 10 micromolar” value under setting [1] is given as “+ (Indicates inhibition greater than . . . 50%)”.
For `CO[C@H]1[C@H](O)[C@@H](COCc2ccc3ccccc3c2)OC(OCCc2ccccc2)[C@@H]1NC(=O)CNC(=N)N` (stereo partly shown) [Compound 100], under setting [1], the “MC4 inhibition at 10 micromolar” value is on record as “+ (Indicates inhibition greater than . . . 50%)”.
Take `CO[C@H]1[C@H](O)[C@@H](COCc2ccc3ccccc3c2)OC(OCCc2ccccc2)[C@@H]1NC(=O)CCNC(=N)N` (stereo partly shown) [Compound 101]: the “MC4 inhibition at 10 micromolar” value under setting [1] is “+ (Indicates inhibition greater than . . . 50%)”.
Take `CO[C@H]1[C@H](O)[C@@H](COCc2ccc(Cl)cc2)OC(OCCc2ccccc2)[C@@H]1NC(=O)CNC(=N)N` (stereo partly shown) [Compound 104]: the “MC4 inhibition at 10 micromolar” value under setting [1] is given as “+ (Indicates inhibition greater than . . . 50%)”.
On to `CO[C@H]1[C@H](O)[C@@H](COCc2ccc(Cl)cc2)OC(OCCc2ccccc2)[C@@H]1NC(=O)CCNC(=N)N` (stereo partly shown) [Compound 105], for which the “MC4 inhibition at 10 micromolar” value under setting [1] is reported as “+ (Indicates inhibition greater than . . . 50%)”.
As for `CO[C@H]1[C@H](O)[C@@H](COCc2ccc(Cl)cc2)OC(OCCc2ccccc2)[C@@H]1NC(=O)CCCNC(=N)N` (stereo partly shown) [Compound 107], the “MC4 inhibition at 10 micromolar” value under setting [1] is “+ (Indicates inhibition greater than . . . 50%)”.
`CO[C@H]1[C@H](O)[C@@H](COCc2cccc(O)c2)OC(OCc2ccc(-c3ccccc3)cc2)[C@@H]1NC(=O)CNC(=N)N` (stereo partly shown) [Compound 108]: the “MC4 inhibition at 10 micromolar” value under setting [1] is on record as “+ (Indicates inhibition greater than . . . 50%)”.
With `CO[C@H]1[C@H](O)[C@@H](COCc2cccc(O)c2)OC(OCc2ccc(Cl)cc2)[C@@H]1NC(=O)CCNC(=N)N` (stereo partly shown) [Compound 110], the “MC4 inhibition at 10 micromolar” value under setting [1] is “+ (Indicates inhibition greater than . . . 50%)”.
Still for that read-out and setting: then `CO[C@H]1[C@H](O)[C@@H](COCc2ccc(-c3ccccc3)cc2)OC(OCc2cccc(O)c2)[C@@H]1NC(=O)CNC(=N)N` (stereo partly shown) [Compound 112], with “+ (Indicates inhibition greater than . . . 50%)”; and `CO[C@H]1[C@H](O)[C@@H](COCc2ccc(-c3ccccc3)cc2)OC(OCc2cccc(O)c2)[C@@H]1NC(=O)CCNC(=N)N` (stereo partly shown) [Compound 113], with “+ (Indicates inhibition greater than . . . 50%)”.
As for `CO[C@H]1[C@H](O)[C@@H](COCc2ccc(-c3ccccc3)cc2)OC(OCc2cccc(O)c2)[C@@H]1NC(=O)CCCN` (stereo partly shown) [Compound 114], the “MC4 inhibition at 10 micromolar” value under setting [1] was “+ (Indicates inhibition greater than . . . 50%)”.
On to `CO[C@H]1[C@H](O)[C@@H](COCc2ccc3ccccc3c2)OC(OCc2cccc(O)c2)[C@@H]1NC(=O)CCCNC(=N)N` (stereo partly shown) [Compound 115], for which the “MC4 inhibition at 10 micromolar” value under setting [1] is “+ (Indicates inhibition greater than . . . 50%)”.
For the molecule `CO[C@H]1[C@H](O)[C@@H](COCc2ccc3ccccc3c2)OC(OCc2cccc(O)c2)[C@@H]1NC(=O)CCNC(=N)N` (stereo partly shown) [Compound 116], the “MC4 inhibition at 10 micromolar” value under setting [1] is given as “+ (Indicates inhibition greater than . . . 50%)”.
On to `CO[C@H]1[C@H](O)[C@@H](COCc2ccc3ccccc3c2)OC(OCc2cccc(O)c2)[C@@H]1NC(=O)CCCNC(=N)N` (stereo partly shown) [Compound 117], for which the “MC4 inhibition at 10 micromolar” value under setting [1] is on record as “+ (Indicates inhibition greater than . . . 50%)”.
In the case of `CSC1OC(COCc2ccc3ccccc3c2)C(O)C(OCc2ccc(-c3ccccc3)cc2)C1NC(=O)CN` (stereo not shown) [Compound 185], the “MC4 inhibition at 10 micromolar” value under setting [1] is reported as “+ (Indicates inhibition greater than . . . 50%)”.
On to `COCC1OC(OCCc2ccccc2)C(NC(=O)CNC(=N)N)C(OCc2ccccc2)C1O` (stereo not shown) [Compound 261], for which the “MC4 inhibition at 10 micromolar” value (10 micromolar, Example Library 4) is “+ (Indicates inhibition greater than . . . 50%)”.
On to `CSC1OC(COC(=O)Cc2ccccc2)C(O)C(OCc2cccc(N)c2)C1NCc1ccccc1` (stereo not shown) [Compound 308], for which the “MC4 inhibition at 10 micromolar” value under setting [1] is given as “+ (Indicates inhibition greater than . . . 50%)”.
Take `CSC1OC(COC(=O)c2c[nH]c3ccccc23)C(O)C(OCc2cccc(N)c2)C1NCc1ccccc1` (stereo not shown) [Compound 309]: the “MC4 inhibition at 10 micromolar” value under setting [1] is on record as “+ (Indicates inhibition greater than . . . 50%)”.
On the same count and under the same terms, then `CSC1OC(COC(=O)c2c[nH]c3ccccc23)C(O)C(OCc2cccc(N)c2)C1NCc1ccc(Cl)cc1` (stereo not shown) [Compound 314], with “+ (Indicates inhibition greater than . . . 50%)”; and `CSC1O[C@H](COCc2ccccc2)[C@@H](O)[C@H](OCc2cccc(N)c2)[C@H]1NC(=O)Cc1ccccc1` (stereo partly shown) [Compound 317], with “+ (Indicates inhibition greater than . . . 50%)”.
On to `CSC1O[C@H](COCc2ccccc2)[C@@H](O)[C@H](OCc2cccc(N)c2)[C@H]1NC(=O)c1c[nH]c2ccccc12` (stereo partly shown) [Compound 318], for which the “MC4 inhibition at 10 micromolar” value under setting [1] is reported as “+ (Indicates inhibition greater than . . . 50%)”.
`CSC1O[C@H](COCc2ccc(Cl)cc2)[C@@H](O)[C@H](OCc2cccc(N)c2)[C@H]1NC(=O)c1c[nH]c2ccccc12` (stereo partly shown) [Compound 323]: under setting [1], the “MC4 inhibition at 10 micromolar” value was “+ (Indicates inhibition greater than . . . 50%)”.
The same measure, in the same setting: then `CSC1O[C@H](COCc2ccc(Cl)cc2)[C@@H](O)[C@H](OCc2cccc(N)c2)[C@H]1NC(=O)CCC1CNc2ccccc21` (stereo partly shown) [Compound 325], with “+ (Indicates inhibition greater than . . . 50%)”; and `CSC1OC(COCc2cccc(N)c2)C(O)C(OCc2ccccc2)C1NC(=O)c1c[nH]c2ccccc12` (stereo not shown) [Compound 328], with “+ (Indicates inhibition greater than . . . 50%)”.
On to `CSC1OC(COCc2cccc(N)c2)C(O)C(OCc2ccc(Cl)cc2)C1NC(=O)CCC1CNc2ccccc21` (stereo not shown) [Compound 332], for which, under setting [1], the “MC4 inhibition at 10 micromolar” value is “+ (Indicates inhibition greater than . . . 50%)”.
On to `CSC1O[C@H](COCc2cccc(N)c2)[C@@H](O)[C@H](OCc2ccccc2)[C@H]1NC(=O)c1ccccc1` (stereo partly shown) [Compound 333], for which the “MC4 inhibition at 10 micromolar” value under setting [1] is given as “+ (Indicates inhibition greater than . . . 50%)”.
Still for that read-out and setting: under `CSC1O[C@H](COCc2cccc(N)c2)[C@@H](O)[C@H](OCc2ccccc2)[C@H]1NC(=O)Cc1ccccc1` (stereo partly shown) [Compound 334] stands “+ (Indicates inhibition greater than . . . 50%)”; under `CSC1O[C@H](COCc2cccc(N)c2)[C@@H](O)[C@H](OCc2ccccc2)[C@H]1NC(=O)/C=C/c1ccccc1` (stereo partly shown) [Compound 335], “+ (Indicates inhibition greater than . . . 50%)”.
Same read-out and setting: under `CSC1O[C@H](COCc2cccc(N)c2)[C@@H](O)[C@H](OCc2ccc(Cl)cc2)[C@H]1NC(=O)/C=C/c1ccccc1` (stereo partly shown) [Compound 340] stands “+ (Indicates inhibition greater than . . . 50%)”.
With `COC1C(O)C(COCc2ccc3ccccc3c2)OC(OCc2ccc(Cl)cc2)C1NC(=O)C(N)CN` (stereo not shown) [Compound 342], the “MC4 Inhibition at 4.0 Micromolar” value is “+ (Indicates inhibition greater than . . . 50%)”.
As for `COC1C(O)C(COCc2ccc3ccccc3c2)OC(OCc2ccc(Cl)cc2)C1NCC(=O)C1CCCN1` (stereo not shown) [Compound 343], the “MC4 Inhibition at 4.0 Micromolar” value is “+ (Indicates inhibition greater than . . . 50%)”.
